# Tests used:
# [1] = system: small cell lung cancer cell line HCC44; assay: Annexin V/PI assay, HCC44; type: cell-based; details: Homo sapiens, HCC44, 24 h
# TP53-mutated CLL cells = assay: FACS analysis of treated CLL cells with TP53 mutation; type: cell-based, human; details: 24 h, 0.01-100 μM, FIG. 6
# Protocol: Isolated, primary CLL cells were treated for 24 h with the EC50 of the different compounds and the ATP-content was measured by flow cytometry. For each used compound the order of mean EC50 concentrations in the bar chart is from left to right as following: EC50 CLL cells TP53 unmut (unmutated=without mutation), EC50 CLL cells TP53 mut (mutated=with mutation).
# Further, the derivatives B9, B12 and B13 were tested in comparison to para-NO-ASA on CLL cells which harbour a TP53 mutation. The patient subgroup with a TP53 disruption is characterized by a considerable dismal prognosis. CLL cells of patients with and without the TP53 mutation were treated with five different concentrations (0.01, 0.1, 1, 10, 100 μM) of para-NO-ASA, B9, B12 and B13 for 24 h.
# [2] = system: several cancer cell lines; assay: Apoptosis (Annexin V/PI) assay, panel of cancer cell lines; type: cell-based; details: range over the cancer cell lines, 24 h; read-out: concentrations inducing apoptosis in different diseases (apoptosis array)
# MEC-1 = assay: CellTiter-Glo ATP assay, MEC-1 cell line; type: cell-based; details: Homo sapiens, MEC1; 24 h, CellTiter-Glo
# Protocol: (§1) Several cell lines (n=5) were treated with different concentrations of p-NO-ASA, B9, B12 and B13 ranging between 0.01 μM and 1000 μM for 24 hours followed by addition of luminogenic CellTiter-Glo®-reagent. […] For each cell line the order of used compound in the bar chart is from left to right as following: p-NO-ASA, B9, B12, B13.
# (§2) Treatment success in CLL may depend on cytogenetic and molecular parameters as for instance del13q or TP53 gene disruption. Therefore, the NO-ASA derivatives were examined on (chronic) B cell lymphoma cell lines with different geno- and phenotypes (JVM3, EHEB, U2932, MEC-1, GRANTA-519). The cells were treated with concentrations between 0.01 and 1000 μM for 24 h followed by the addition of luminogenic CellTiter-Glo® reagent.
# [3] = system: melanoma cell line MelJuso; assay: Annexin V/PI assay, MelJuso; type: cell-based; details: Homo sapiens, MEL-JUSO, 24 h
# [4] = system: ovarian adenocarcinoma cell line COLO704; assay: Viability assay (ATP content, CellTiter-Glo), COLO704; type: cell-based; details: COLO 704, 24 h
# Protocol: (§3) In the following experiment the possible therapeutic window for NO-ASA derivatives was investigated. […] The melanoma cell line MelJuso, the colon carcinoma cell line SW480, the small cell lung cancer cell line HCC44, the ovarian adenocarcinoma cell line COLO704 and the acute myeloid leukemia cell line SH2 were treated with concentrations of p-NO-ASA and B9, B12 and B13 in a range between 0.01 μM and 100 μM for 24 h, followed by addition of luminogenic CellTiter-Glo® reagent.
# (§4) Table accompanying Example 5. Overview of the EC50 values of cell survival analyzed by ATP content and Annexin V/PI assay. n.t.; not tested
# [5] = system: acute myeloid leukemia cell line SH2; assay: Annexin V/PI assay, SH2; type: cell-based; details: 24 h
# [6] = system: melanoma cell line MelJuso; assay: Viability assay (ATP content, CellTiter-Glo), MelJuso; type: cell-based; details: Homo sapiens, MEL-JUSO, 24 h
# Protocol: as §3, §4
# [7] = system: small cell lung cancer cell line HCC44; assay: Viability assay (ATP content, CellTiter-Glo), HCC44; type: cell-based; details: Homo sapiens, HCC44, 24 h
# Protocol: as §3, §4
# U2932 = assay: CellTiter-Glo ATP assay, U2932 cell line; type: cell-based; details: 24 h, 0.01-1000 μM
# Protocol: as §1, §2
# [8] = system: SW480, MelJuso, HCC44, SH2 and COLO704 cell lines; type: cell-based; details: 24 h, 0.01-100 μM
# Protocol: as §3
# EHEB = assay: CellTiter-Glo ATP assay, EHEB cell line; type: cell-based; details: 24 h, 0.01-1000 μM
# Protocol: as §1, §2
# [9] = system: colon carcinoma cell line SW480; assay: cells; type: cell-based; details: Homo sapiens, SW480, 24 h, read-out: Viability assay EC50, SW480
# Protocol: The cell lines (n=5) were treated with different concentrations of p-NO-ASA, B9, B12 and B13 ranging between 0.01 μM and 100 μM for 24 hours followed by addition of luminogenic CellTiter-Glo®-reagent (see Example 5).
# as §3, §4
# caspases 3 and 7 = assay: caspase-3/7 assay in CLL cells; type: cell-based; details: Homo sapiens, CLL cell, 6 h, 0.01-20 μM, luminogenic caspase-3/7-substrate, read-out: activation of caspases 3 and 7, EC50
# Source text: FIG. 8 depicts the involvement of caspase-mediated apoptosis in CLL cells upon treatment with p-NO-ASA, B9, B12 and B13. Representative blots of 3 independent experiments are shown. Untreated and DMSO (1%) treated cells served as control. beta-actin=loading control (FIG. 8A). para-NO-ASA and B9 induced a concentration-dependent increase in caspase-3/7-activation (FIG. 8B).
# To determine whether the toxicity on CLL cells is due to caspase-mediated apoptosis, the cleavage of PARP (Poly(ADP-ribose)-Polymerase 1) and XIAP (X-linked inhibitor of apoptosis) was analyzed by immunoblot. CLL cells were cultured alone, with 1% DMSO or with EC50 of p-NO-ASA, meta-NO-ASA, B9, B12 and B13 for 24 h followed by protein lysation and western blot analysis using antibodies to detect prognostic apoptotic proteins (XIAP, PARP). […] All compounds tested induced PARP and XIAP cleavage (FIG. 8A). Further a caspase-3/7 assay was carried out. CLL cells were incubated with para-NO-ASA and B9 in different concentrations ranging from 0.01 μM to 20 μM for 6 h followed by addition of luminogenic caspase-3/7-substrate. This indicates the reduction of the survival of CLL cells upon treatment with p-NO-ASA and B9 due to the induction of caspase-mediated apoptosis.
# Primary CLL cells = assay: AnnexinV/PI assay on primary CLL cells; type: cell-based, human
# Protocol: PBMCs or CLL cells (5*10^6 cells/ml) were incubated for 24 h with different compounds at concentrations from 0.01 to 100 μM. Cell survival was normalized to DMSO control [vehicle]. See Example 1.
# Primary CLL or peripheral blood mononuclear cells of healthy donors (5*10^6/ml) were incubated for 24 h with different compounds according to the invention and NO-ASA as a control. The compounds were added in different concentrations, in particular in concentrations from 0.01-100 μM. Cell survival was assessed by AnnexinV/PI assay (Kit commercially available, e.g. by Biotium Inc, USA; or Phoenix Flow Systems, US), the results were normalized to DMSO control [vehicle] and dose response curves were calculated using a non-linear regression model.
# GRANTA-519 = assay: CellTiter-Glo ATP assay, GRANTA-519 cell line; type: cell-based; details: Homo sapiens, Granta-519; 24 h, CellTiter-Glo
# Protocol: as §1, §2
structure (smiles),measurement,setting,value
"O=C(Oc1ccc(CO[N+](=O)[O-])cc1)c1ccccc1 [B9, 4-((nitrooxy)methyl)phenyl benzoate]",EC50,[1],6760 nM
same,effect on TP53-mutated CLL cells in comparison to para-NO-ASA (B1),TP53-mutated CLL cells,more effective
same,EC50,[2],1000 to 9000 nM
same,EC50,MEC-1,6620 nM
same,EC50,[3],8760 nM
same,EC50,[4],4330 nM
same,EC50,[5],1930 nM
same,EC50,[6],890 nM
same,EC50,[7],2480 nM
same,ATP content in U2932,U2932,reduced ATP content
same,"ATP content in SW480, MelJuso, HCC44, SH2 and COLO704 cell lines",[8],reduced ATP content
same,ATP content in EHEB,EHEB,reduced ATP content
same,EC50,[9],31800 nM
same,EC50,caspases 3 and 7,230 nM
same,selectivity for CLL cells compared to PBMCs,"Primary CLL cells; FIG. 3, sensitivity of CLL cells vs PBMCs, 24 h",selective for CLL cells
same,EC50,"Primary CLL cells; Homo sapiens, CLL cell, 24 h incubation, 0.01-100 μM, 5*10^6 cells/ml, normalized to DMSO control, read-out: AnnexinV/PI assay EC50 Primary CLL",1850 nM
same,EC50,GRANTA-519,2280 nM

# Source: US10793509B2, “Compounds useful in the treatment of neoplastic diseases” (UNIVERSITÄT ZU KÖLN, priority 2013, dated 2020)
